Literature values in patent publication US20200254002A1, “COMBINATION THERAPIES FOR TREATING MUSCULAR DYSTROPHY” (SAREPTA THERAPEUTICS, INC., priority 2017, published 2020).
“Also recorded” adds a separate entry of the source. Read-outs that look alike come from different tables or passages of the source.

Legend:
[1] = test system: ryanodine receptor; conditions: patient cells and a mouse model of DMD
[2] = test system: cNF-κB; conditions: in vitro
[3] = test system: Mdx mice
[4] = test system: NF-κB p65
[5] = phase I clinical program in adults
[6] = test system: dystrophin protein
[7] = test system: dystrophin; conditions: DMD patients
[8] = test system: exon 53 of dystrophin pre-mRNA; conditions: for Exon skipping in DMD patients: all 25 patients, at least 48 weekly doses
[9] = test system: human DMD transcript; conditions: hDMD mouse model
[10] = test system: normal human skeletal muscle cells or muscle cells from DMD patients; conditions: RT-PCR and Western blot
[11] = test system: immune response; conditions: rat, in vivo
[12] = Part 1 patients, 60-76 weeks dosing
[13] = Part 2 patients, ~48-51 weeks dosing
[14] = Part 2/Pl patients, 48-51 weeks

In the case of `O=C1CN(/N=C/c2ccc(-c3ccc([N+](=O)[O-])cc3)o2)C(O)=N1` [dantrolene], the Antisense-mediated exon skipping [1] is given as “enhance antisense-mediated exon skipping”.
In the case of `CC/C=C\C/C=C\C/C=C\C/C=C\C/C=C\CCCC(=O)NCCNC(=O)c1ccccc1O` [CAT-1041], the cNF-κB activation [2] is given as “inhibit cNF-κB activation in vitro”, the Exercise endurance ([3]; mdx mice) is given as “increased exercise endurance” and the Inflammation and fibrosis ([3]; mdx mice) is given as “reduced inflammation and fibrosis”. The Muscle fibrosis ([3]; mdx mice, long-term studies) was “reduces muscle fibrosis”, the Muscle function ([3]; mdx mice, long-term studies) was “preserves muscle function” and the Skeletal muscle weight ([3]; mdx mice, long-term studies) was “increases skeletal muscle weight”. For the same compound, the Dystrophic phenotype ([3]; mdx mouse, long-term treatment) was “improves the phenotype”, the Diaphragm function ([3]; mouse DMD model) was “improved diaphragm function” and the Dystrophic phenotype ([4]; GRMD dog, long-term treatment) was “improves the phenotype”. For the same compound, the Diaphragm function ([4]; dog DMD model) was “improved diaphragm function”.
In the case of `CC/C=C\C/C=C\C/C=C\C/C=C\C/C=C\C/C=C\CCC(=O)NCCNC(=O)c1ccccc1O` [CAT-1004, N-(2-[(4Z,7Z,10Z,13Z,16Z,19Z)-docosa-4,7,10,13,16,19-hexaenamido]ethyl)-2-hydroxybenzamide], the Safety and tolerability [5] is listed as “safe, well tolerated”.
For “all-P-ambo-[P,2′,3′-trideoxy-P-(dimethylamino)-2′,3′-imino-2′,3′-seco](2′a[…]5′)(GTTGCCTCCGGTTCTGAAGGTGTTC) 5′-[4-({2-[2-(2-hydroxyethoxy)ethoxy]ethoxy}carbonyl)-N,N-dimethylpiperazine-1-phosphonamidate] [SRP-4053]”, the “Mean Change from baseline (SD), dystrophin by Western blot” value (“Mean Change from baseline (SD)” below) ([6]; All patients) is given as 0.92 (1.01), the “On treatment Mean % normal (SD), dystrophin by Western blot” value (from here on “On treatment Mean % normal (SD)”) ([6]; All patients) is given as 1.02 (1.03) % normal and the “Dystrophin protein as measured by Western blot” value ([6]; DMD patients, over baseline) is given as “statistically significant increase over baseline in dystrophin protein”. The “Mean Change from baseline (SD)” value [6, 12] was 1.29 (1.51), the “On treatment Mean % normal (SD)” value [6, 12] was 1.40 (1.57) % normal and the “Mean Change from baseline (SD)” value [6, 13] was 0.75 (0.67). For the same compound, the “On treatment Mean % normal (SD)” value [6, 13] was 0.84 (0.64) % normal, the “Baseline Mean % normal (SD), dystrophin by Western blot” value (“Baseline Mean % normal (SD)” below) ([6]; All patients) was 0.09 (0.07) % normal and the “Baseline Mean % normal (SD)” value [6, 12] was 0.10 (0.09) % normal. The “Baseline Mean % normal (SD)” value [6, 13] was 0.09 (0.06) % normal, the “Mean fiber intensity, de novo dystrophin” value ([7]; above baseline) was “statistically significant increase (p<0.001) above baseline in de novo dystrophin” and the Sarcolemmal dystrophin localization ([7]; listed as Golodirsen) was “correctly localized to the sarcolemma membrane; also recorded: observed in all patients”. The “Decrease from Baseline (RT-PCR, patients)” value (shortened to “Decrease from Baseline”) ([8]; All patients) was 0, the “Fold Increase (RT-PCR exon skipping)” value ([8]; All patients) was 7.3 and the “Increase > 0.1 from Baseline (RT-PCR, patients)” value ([8]; All patients) was 25 (100.0%). The “Increase from Baseline (RT-PCR, patients)” value (from here on “Increase from Baseline”) ([8]; All patients) was 25 (100.0%), the “No Increase > 0.1 from Baseline (RT-PCR, patients)” value (“No Increase > 0.1 from Baseline” for short) ([8]; All patients) was 0 and the “Unchanged from Baseline (RT-PCR, patients)” value (from here on “Unchanged from Baseline”) ([8]; All patients) was 0. For the same compound, the “Decrease from Baseline” value ([8]; Part 1 patients, 60-76 weeks) was 0, the “Increase > 0.1 from Baseline (RT-PCR, patients)” value ([8]; Part 1 patients, 60-76 weeks) was 8 (100.0%) and the “Increase from Baseline” value ([8]; Part 1 patients, 60-76 weeks) was 8 (100.0%). For the same compound, the “No Increase > 0.1 from Baseline” value ([8]; Part 1 patients, 60-76 weeks) was 0, the “Unchanged from Baseline” value ([8]; Part 1 patients, 60-76 weeks) was 0 and the “Decrease from Baseline” value [8, 14] was 0. The “Increase > 0.1 from Baseline (RT-PCR, patients)” value [8, 14] was 17 (100.0%), the “Increase from Baseline” value [8, 14] was 17 (100.0%) and the “No Increase > 0.1 from Baseline” value [8, 14] was 0. The “Unchanged from Baseline” value [8, 14] was 0, the “Exon skipping in DMD patients” value [8] was “increase over baseline levels in exon skipping” and the “Exon skipping in DMD patients” value ([8]; listed as Golodirsen) was “observed in all patients”.
For eteplirsen, the “Exon 51 skipping in vivo” value [9] is listed as “confirmed in vivo”, the “Exon 51 skipping in vitro” value [10] is listed as “potent inducer of exon 51 skipping” and the “Effect on the immune response” value [11] is listed as “no adverse effect on the immune response”.
